Active and inactive are the calls of the source. No cut-off for these calls is given here.
Legend:
Cirsium arvense = assay: Phytotoxic activity against Cirsium arvense (Canada thistle) assessed as necrosis spot at 6 x 10^-3 M after 3 days by leaf puncture assay; assay type: functional, organism-based
[1] = Zootoxic activity against larvae of Artemia salina (brine shrimp) assessed as mortality at 10^-4 M; assay type: ADME, organism-based; conditions: in vivo
Escherichia coli = assay: Antibacterial activity against Escherichia coli up to 100 ug/disk; assay type: functional, organism-based
Lactobacillus sp. = assay: Antibacterial activity against Lactobacillus sp. at 5 ug/disk; assay type: functional, organism-based
Geotrichum candidum = assay: Antifungal activity against Galactomyces geotrichum up to 100 ug/disk; assay type: functional, organism-based
Artemia salina = assay: Zootoxic activity against larvae of Artemia salina (brine shrimp) assessed as mortality; assay type: ADME, organism-based; conditions: in vivo

Compound | Activity (Cirsium arvense) | mortality at 100 µM [1] [%] | Activity (Escherichia coli) | Activity (Lactobacillus sp.) | Activity (Geotrichum candidum) | Activity (Artemia salina)
CCN1C(=O)/C2=C3\CO[C@@](OC)([C@@H](O)CCCCC[C@]21C(C)O)[C@H]3O (some centres not stated) | inactive |  |  |  |  | 
CO[C@]12OC/C(=C3\C(=O)N(C)CC[C@]3(C)C(=O)CCCC[C@@H]1O)[C@@H]2O | Active |  |  |  |  | 
CCN1C(=O)/C2=C3\CO[C@@](OC)([C@@H](O)CCCCC[C@]21C)[C@H]3O [PHYLLOSTICTINE A] | Active | 24 | inactive | Active | inactive | 
CCN1C(=O)/C2=C3\CO[C@@](OC)([C@@H](O)CCC[C@]21C)[C@H]3O [PHYLLOSTICTINE B] | Active |  | inactive | Active | inactive | Non-toxic
